Data: patent US9382204B2, “Inhibitors targeting the DNA-binding domain of human STAT3 for treatment of metastatic cancers” (Indiana University Research and Technology Corporation, priority 2013, dated 2016)
Like-named read-outs stand apart in the source and are kept apart here.

Test system: STAT3
Assay: STAT3-dependent luciferase reporter assay in MDA-MB-231-STAT3 stable cells
Assay type: cell-based, human
Settings: 20 μM; for inhibition of luciferase expression compared to DMSO vehicle control: significant = p value less than 0.05; for activity at 20 µM: Homo sapiens
Method: FIG. 12. Identification of active inS3-54 analogues. (A) Effects of inS3-54 analogues on STAT3-dependent luciferase expression. MDA-MB-231 cells with stable STAT3-dependent luciferase expression were treated with DMSO control, 20 μM inSTAT3-54 or its analogues (A1-A79), followed by measurement of luciferase activity. (*p<0.05; **p<0.01; ***p<0.001).
MDA-MB-231-STAT3 stable cell line with high level of STAT3-dependent luciferase expression was exposed to candidate compounds at 20 μM in DMSO for 48 hours based on previous studies, and luciferase activity was measured using a luciferase assay kit (Promega, USA), following manufacturer's instructions. The final DMSO concentration in this and following assays was 0.1% (vol/vol).

[1] = mean of experiments, relative to DMSO

Structure (SMILES) | Rel. luciferase activity (%) 1 (experiment 1, relative to DMSO) | Rel. luciferase activity (%) 2 (experiment 2, relative to DMSO) | Rel. luciferase activity (%) 3 (experiment 3, relative to DMSO) | Rel. luciferase activity (%) Mean [1] | inhibition of luciferase expression compared to DMSO vehicle control | activity at 20 µM (experiment 1, relative to DMSO, read-out: Rel. luciferase activity (%) 1) | activity at 20 µM (experiment 2, relative to DMSO, read-out: Rel. luciferase activity (%) 2) | activity at 20 µM (experiment 3, relative to DMSO, read-out: Rel. luciferase activity (%) 3) | activity at 20 µM (mean of experiments, relative to DMSO, read-out: Rel. luciferase activity (%) Mean)
COc1cccc(N2C(=O)C(=Cc3ccc([N+](=O)[O-])cc3)C=C2c2ccccc2)c1 [Compound A41] | 60.5% | 79.5% | 81.2% | 73.7% | significantly inhibited | – | – | – | –
O=C1C(=Cc2ccc([N+](=O)[O-])cc2)C=C(c2ccccc2)N1c1ccccc1O [Compound A42] | 100.8% | 145.3% | 100.8% | 115.6% | – | – | – | – | –
COC(=O)c1ccc(N2C(=O)C(=Cc3ccc([N+](=O)[O-])cc3)C=C2c2ccccc2)cc1 [Compound A43] | 98.6% | 100.4% | 66.9% | 88.6% | – | – | – | – | –
CCN(CC)c1ccc(N2C(=O)C(=Cc3ccc([N+](=O)[O-])cc3)C=C2c2ccccc2)cc1 [Compound A45] | 60.9% | 89.3% | 71.6% | 73.9% | significantly inhibited | – | – | – | –
O=C1C(=Cc2ccc([N+](=O)[O-])cc2)C=C(c2ccccc2)N1c1ccc2ccccc2c1 [Compound A46] | 156.2% | 147.8% | 64.9% | 122.9% | – | – | – | – | –
CC(=O)Nc1ccc(N2C(=O)C(=Cc3ccc([N+](=O)[O-])cc3)C=C2c2ccccc2)cc1 [Compound A47] | 106.8% | 108.8% | 43.3% | 86.3% | – | – | – | – | –
O=C1C(=Cc2ccc([N+](=O)[O-])cc2)C=C(c2ccccc2)N1c1ccc(Cl)c(Cl)c1 [Compound A48] | 87.5% | 108.6% | 42.5% | 79.5% | – | – | – | – | –
O=C1C(=Cc2ccc([N+](=O)[O-])cc2)C=C(c2ccccc2)N1c1ccc(Nc2ccccc2)cc1 [Compound A49] | 93.7% | 124.2% | 90.2% | 102.7% | – | – | – | – | –
COC(=O)c1cccc(N2C(=O)C(=Cc3ccc(OC)cc3)C=C2c2ccccc2)c1 [Compound A50] | 168.6% | 187.0% | 153.6% | 169.7% | – | – | – | – | –
COc1ccc(C=C2C=C(c3ccccc3)N(c3cccc4ccccc34)C2=O)cc1 [Compound A51] | 42.2% | 71.0% | 56.6% | 56.6% | significantly inhibited | – | – | – | –
COc1ccc(C=C2C=C(c3ccccc3)N(c3ccc(Cl)c(Cl)c3)C2=O)cc1 [Compound A52] | 39.5% | 141.9% | 77.7% | 86.4% | – | – | – | – | –
COc1ccc(C=C2C=C(c3ccccc3)N(c3ccc(F)cc3)C2=O)cc1 [Compound A53] | 45.4% | 113.0% | 47.4% | 68.6% | – | – | – | – | –
COC(=O)c1ccc(N2C(=O)C(=Cc3ccc(OC)cc3)C=C2c2ccccc2)cc1 [Compound A54] | 77.8% | 100.8% | 41.7% | 73.5% | – | – | – | – | –
COc1ccc(C=C2C=C(c3ccccc3)N(c3ccc4ccccc4c3)C2=O)cc1 [Compound A56] | 150.7% | 143.4% | 76.2% | 123.4% | – | – | – | – | –
COc1ccc(C=C2C=C(c3ccccc3)N(c3ccccc3Cl)C2=O)cc1 [Compound A57] | 59.5% | 97.9% | 51.5% | 69.6% | – | – | – | – | –
COc1ccc(C=C2C=C(c3ccccc3)N(c3cccc(Cl)c3Cl)C2=O)cc1 [Compound A58] | 78.9% | 81.8% | 36.8% | 65.8% | – | – | – | – | –
O=C1C(=Cc2ccc(Cl)cc2)C=C(c2ccccc2)N1c1ccc2ccccc2c1 [Compound A59] | 124.7% | 148.5% | 80.5% | 117.9% | – | – | – | – | –

Structure (SMILES) | Rel. luciferase activity (%) 1 (experiment 1, relative to DMSO) | Rel. luciferase activity (%) 2 (experiment 2, relative to DMSO) | Rel. luciferase activity (%) 3 (experiment 3, relative to DMSO) | Rel. luciferase activity (%) Mean [1] | inhibition of luciferase expression compared to DMSO vehicle control | activity at 20 µM (experiment 1, relative to DMSO, read-out: Rel. luciferase activity (%) 1) | activity at 20 µM (experiment 2, relative to DMSO, read-out: Rel. luciferase activity (%) 2) | activity at 20 µM (experiment 3, relative to DMSO, read-out: Rel. luciferase activity (%) 3) | activity at 20 µM (mean of experiments, relative to DMSO, read-out: Rel. luciferase activity (%) Mean)
COc1ccc(C=C2C=C(c3ccccc3)N(c3ccc(NC(C)=O)cc3)C2=O)cc1 [Compound A60] | 70.7% | 107.0% | 58.9% | 78.9% | – | – | – | – | –
O=C(O)c1ccc(N2C(=O)C(=Cc3ccc(-c4ccc(Cl)c(Cl)c4)o3)C=C2c2ccccc2)cc1 [Compound A61] | 57.8% | 107.0% | 40.8% | 68.5% | – | – | – | – | –
O=C1C(=Cc2ccc(-c3ccc([N+](=O)[O-])cc3)o2)C=C(c2ccccc2)N1c1ccccc1 [Compound A62] | 71.1% | 111.3% | 52.2% | 78.2% | – | – | – | – | –
O=C1C(=Cc2ccc(-c3ccc([N+](=O)[O-])cc3)o2)C=C(c2ccccc2)N1Cc1ccccc1 [Compound A64] | 79.8% | 109.6% | 49.0% | 79.5% | – | – | – | – | –
CC(=O)c1cccc(N2C(=O)C(=Cc3ccc(Cl)cc3)C=C2c2ccccc2)c1 [Compound A65] | 86.6% | 103.9% | 91.2% | 93.9% | – | – | – | – | –
COC(=O)c1cc(N2C(=O)C(=Cc3ccc(Cl)cc3)C=C2c2ccccc2)ccc1Cl [Compound A66] | 90.3% | 110.5% | 73.6% | 91.5% | – | – | – | – | –
O=C1C(=Cc2ccc([N+](=O)[O-])cc2)C=C(c2ccccc2)N1c1ccccc1 [Compound A68] | 71.2% | 84.5% | 68.7% | 74.8% | significantly inhibited | – | – | – | –
O=C(O)c1cc(N2C(=O)C(=Cc3ccc([N+](=O)[O-])cc3)C=C2c2ccccc2)ccc1O [Compound A70] | 99.0% | 97.9% | 92.8% | 96.5% | – | – | – | – | –
COc1ccc(C=C2C=C(c3ccccc3)N(c3ccc(O)cc3)C2=O)cc1 [Compound A72] | 34.2% | 58.1% | 34.1% | 42.1% | significantly inhibited | – | – | – | –
COc1ccc(C=C2C=C(c3ccccc3)N(c3ccccc3O)C2=O)cc1 [Compound A73] | 72.9% | 97.8% | 103.4% | 91.3% | – | – | – | – | –
CCOC(=O)c1ccc(N2C(=O)C(=Cc3ccc(Cl)cc3)C=C2c2ccccc2)cc1 [Compound A74] | 65.9% | 105.7% | 74.5% | 82.0% | – | – | – | – | –
COc1ccccc1N1C(=O)C(=Cc2ccc(Cl)cc2)C=C1c1ccccc1 [Compound A75] | 28.7% | 71.4% | 45.4% | 48.5% | significantly inhibited | – | – | – | –
O=C1C(=Cc2ccc(Cl)cc2)C=C(c2ccccc2)N1c1cccc(Cl)c1 [Compound A76] | 60.0% | 151.4% | 104.0% | 105.1% | – | – | – | – | –
CN(C)c1ccc(N2C(=O)C(=Cc3ccc([N+](=O)[O-])cc3)C=C2c2ccccc2)cc1 [Compound A77] | 109.7% | 103.0% | 77.0% | 96.6% | – | – | – | – | –
COc1ccc(C=C2C=C(c3ccccc3)N(c3ccc(N(C)C)cc3)C2=O)cc1 [Compound A78] | 71.7% | 107.9% | 61.0% | 80.2% | – | – | – | – | –
CCOC(=O)C1=C(C)N(c2ccc(OCC)cc2)C(=O)/C1=C\c1ccc([N+](=O)[O-])cc1 [Compound A79] | – | – | – | – | significantly inhibited | 10.2% | 44.8% | 55.6% | 36.9%
